These results are taken from US20080045525A1, “Piperazinyl-Pyridine Analogues” (priority 2004, published 2008).

In assay [1] the target is T1, human capsaicin receptor (Homo sapiens, UniProt Q8NER1).
T1 construct: transfected with the pBK-CMV expression construct encoding the full length human capsaicin receptor; expressed in transfected cells
Kind of assay: Calcium mobilization assay, determination of antagonist activity. As to conditions: cells expressing human capsaicin receptor; capsaicin at its EC50; FLUO-3 fluorescence. It counts as cell-based. The procedure: A cDNA encoding full length human capsaicin receptor (SEQ ID NO:1, 2 or 3 of U.S. Pat. No. 6,482,611) was subcloned in the plasmid pBK-CMV (Stratagene, La Jolla, Calif.) for recombinant expression in mammalian cells.
Human embryonic kidney (HEK293) cells were transfected with the pBK-CMV expression construct encoding the full length human capsaicin receptor using standard methods. The transfected cells were selected for two weeks in media containing G418 (400 μg/ml) to obtain a pool of stably transfected cells. Independent clones were isolated from this pool by limiting dilution to obtain clonal stable cell lines for use in subsequent experiments.
(§1) Cells transfected with expression plasmids (as described in Example 4) and thereby expressing human capsaicin receptor are seeded and grown to 70-90% confluency in FALCON black-walled, clear-bottomed 96-well plates (#3904, BECTON-DICKINSON, Franklin Lakes, N.J.). The culture medium is emptied from the 96 well plates and FLUO-3 AM calcium sensitive dye (Molecular Probes, Eugene, Oreg.) is added to each well (dye solution: 1 mg FLUO-3 AM, 440 μL DMSO and 440 μl 20% pluronic acid in DMSO, diluted 1:250 in Krebs-Ringer HEPES (KRH) buffer (25 mM HEPES, 5 mM KCl, 0.96 mM NaH2PO4, 1 mM MgSO4, 2 mM CaCl2, 5 mM glucose, 1 mM probenecid, pH 7.4), 50 μl diluted solution per well). Plates are covered with aluminum foil and incubated at 37° C. for 1-2 hours in an environment containing 5% CO2. After the incubation, the dye is emptied from the plates, and the cells are washed once with KRH buffer, and resuspended in KRH buffer.
To measure the ability of a test compound to agonize or antagonize a calcium mobilization response in cells expressing capsaicin receptors to capsaicin or other vanilloid agonist, the EC50 of the agonist capsaicin is first determined. An additional 20 μl of KRH buffer and 1 μl DMSO is added to each well of cells, prepared as described above. 100 μl capsaicin in KRH buffer is automatically transferred by the FLIPR instrument to each well. Capsaicin-induced calcium mobilization is monitored using either FLUOROSKAN ASCENT (Labsystems; Franklin, Mass.) or FLIPR (fluorometric imaging plate reader system; Molecular Devices, Sunnyvale, Calif.) instruments. Data obtained between 30 and 60 seconds after agonist application are used to generate an 8-point concentration response curve, with final capsaicin concentrations of 1 nM to 3 μM. […] software (Synergy Software, Reading, Pa.) is used to fit the data to the equation: y=a*(1/(1+(b/x)^c)) to determine the 50% excitatory concentration (EC50) for the response. In this equation, y is the maximum fluorescence signal, x is the concentration of the agonist or antagonist (in this case, capsaicin), a is the Emax, b corresponds to the EC50 value and c is the Hill coefficient. Determination of Agonist Activity
Test compounds are dissolved in DMSO, diluted in 20 μl KRH buffer so that the final concentration of test compounds in the assay well is between 1 μM and 5 μM, and added to cells prepared as described above. The 96 well plates containing prepared cells and test compounds are incubated in the dark, at room temperature for 0.5 to 6 hours. It is important that the incubation not continue beyond 6 hours. Just prior to determining the fluorescence response, 100 μl capsaicin in KRH buffer at twice the EC50 concentration determined as described above is automatically added by the FLIPR instrument to each well of the 96 well plate for a final sample volume of 200 μl and a final capsaicin concentration equal to the EC50. The final concentration of test compounds in the assay wells is between 1 μM and 5 μM.
(Calcium flux is commonly read through the fluorescence of an indicator in the cells.)

Assay [2] deals with T1, human capsaicin receptor. In words: Calcium mobilization assay, agonist response (capsaicin positive control). Format: cell-based. As to conditions: capsaicin as positive control in cells expressing human capsaicin receptor; read-out: approximate EC90 concentration. The procedure: as §1, with “Plates are covered with aluminum foil and incubated at 37° C. for 1-2 hours in an environment containing 5% CO2. After the incubation, the dye is emptied from the plates, and the cells are washed once with KRH buffer, and resuspended in KRH buffer.” left out
To measure the ability of a test compound to agonize or antagonize a calcium mobilization response in cells expressing capsaicin receptors to capsaicin or other vanilloid agonist, the EC50 of the agonist capsaicin is first determined. […] Capsaicin-induced calcium mobilization is monitored using either FLUOROSKAN ASCENT (Labsystems; Franklin, Mass.) or FLIPR (fluorometric imaging plate reader system; Molecular Devices, Sunnyvale, Calif.) instruments. […] In this equation, y is the maximum fluorescence signal, x is the concentration of the agonist or antagonist (in this case, capsaicin), a is the Emax, b corresponds to the EC50 value and c is the Hill coefficient. […]

The target in another assay is VR. As to conditions: typical value, non-selective cation channel blocker; cited from earlier work.

As usually defined, the IC50 is the point on the concentration scale where inhibition reaches its midpoint. For orientation: Ki means the equilibrium dissociation constant of an inhibitor or competing ligand from its target.

T1 sequence (Q8NER1 whole entry): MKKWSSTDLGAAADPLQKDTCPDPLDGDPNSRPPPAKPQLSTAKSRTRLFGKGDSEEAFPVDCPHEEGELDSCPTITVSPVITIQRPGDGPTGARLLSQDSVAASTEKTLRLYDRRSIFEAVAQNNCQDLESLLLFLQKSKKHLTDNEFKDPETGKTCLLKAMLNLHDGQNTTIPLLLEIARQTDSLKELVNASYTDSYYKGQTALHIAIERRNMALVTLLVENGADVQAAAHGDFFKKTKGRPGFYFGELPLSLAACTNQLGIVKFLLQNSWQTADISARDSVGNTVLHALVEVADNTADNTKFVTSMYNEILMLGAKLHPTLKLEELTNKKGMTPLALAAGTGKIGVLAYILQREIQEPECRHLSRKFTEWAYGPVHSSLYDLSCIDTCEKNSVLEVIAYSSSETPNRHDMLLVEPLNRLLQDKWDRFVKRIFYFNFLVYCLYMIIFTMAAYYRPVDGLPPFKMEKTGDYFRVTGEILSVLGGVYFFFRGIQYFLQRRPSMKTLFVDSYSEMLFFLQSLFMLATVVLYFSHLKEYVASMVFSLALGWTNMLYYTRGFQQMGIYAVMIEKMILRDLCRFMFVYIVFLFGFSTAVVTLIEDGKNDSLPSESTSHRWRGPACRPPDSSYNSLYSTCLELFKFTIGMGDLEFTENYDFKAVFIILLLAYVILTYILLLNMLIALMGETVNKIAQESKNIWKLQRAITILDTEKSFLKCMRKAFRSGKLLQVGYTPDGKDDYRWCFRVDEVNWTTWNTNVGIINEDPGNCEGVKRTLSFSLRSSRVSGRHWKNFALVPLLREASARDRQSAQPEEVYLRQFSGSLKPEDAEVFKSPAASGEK

As to `FC(F)(F)c1cccnc1N1CCN(c2cc(N3CCCC3)nc(N3CCOCC3)n2)CC1` [4-(4-pyrrolidin-1-yl-6-{4-[3-(trifluoromethyl)pyridin-2-yl]piperazin-1-yl}pyrimidin-2-yl)morpholine], on human capsaicin receptor [1], the IC50 is at most 1000 nM.
Still for that read-out and setting: with `OCCC1CCN(c2cc(N3CCN(c4ncccc4C(F)(F)F)CC3)nc(N3CCOCC3)n2)CC1` [2-[1-(2-morpholin-4-yl-6-{4-[3-(trifluoromethyl)pyridin-2-yl]piperazin-1-yl}pyrimidin-4-yl)piperidin-4-yl]ethanol] the figure was at most 1000 nM; with `Cc1cc(C(=O)O)cnc1N1CCN(c2cc(N3CCCCC3)nc(N3CCCC3C)n2)[C@H](C)C1` (stereo partly shown) [5-methyl-6-{3-methyl-4-[2-(2-methylpyrrolidin-1-yl)-6-piperidin-1-ylpyrimidin-4-yl]piperazin-1-yl}nicotinic acid], at most 1000 nM; with `Cc1cc(C(=O)O)cnc1N1CCN(c2cc(N3CCC(F)CC3)nc(N3CCCC3C)n2)[C@H](C)C1` (stereo partly shown) [6-{4-[6-(4-fluoropiperidin-1-yl)-2-(2-methylpyrrolidin-1-yl)pyrimidin-4-yl]-3-methylpiperazin-1-yl}-5-methylnicotinic acid], at most 1000 nM.
`FC(F)(F)c1cccnc1N1CCN(c2cc(N3CCC4(CC3)OCCO4)nc(N3CCOCC3)n2)CC1` [8-(2-morpholin-4-yl-6-{4-[3-(trifluoromethyl)pyridin-2-yl]piperazin-1-yl}pyrimidin-4-yl)-1,4-dioxa-8-azaspiro[4.5]decane]: the IC50 at human capsaicin receptor [1] was at most 1000 nM.
On to `CCOC(=O)c1cnc(N2CCN(c3cc(N4CCCCC4)nc(N4CCCC4C)n3)[C@H](C)C2)c(C)c1` (stereo partly shown) [ethyl 5-methyl-6-{3-methyl-4-[2-(2-methylpyrrolidin-1-yl)-6-piperidin-1-ylpyrimidin-4-yl]piperazin-1-yl}nicotinate], for which the IC50 on human capsaicin receptor [1] was at most 1000 nM.
For the compound `COc1cc(CNC(=O)CCCC/C=C/C(C)C)ccc1O` [capsaicin], on human capsaicin receptor [2], the EC90 is about 100 nM.
As to `FC(F)(F)c1cccnc1N1CCN(c2cc(N3CCOCC3)nc(N3CCOCC3)n2)CC1` [4,4′-(6-{4-[3-(trifluoromethyl)pyridin-2-yl]piperazin-1-yl}pyrimidine-2,4-diyl)dimorpholine], the IC50 on human capsaicin receptor [1] is at most 1000 nM.
On the same count and under the same terms, with `Cc1cc(CO)cnc1N1CCN(c2cc(N3CCCCC3)nc(N3CCCC3C)n2)[C@H](C)C1` (stereo partly shown) [(5-methyl-6-{3-methyl-4-[2-(2-methylpyrrolidin-1-yl)-6-piperidin-1-ylpyrimidin-4-yl]piperazin-1-yl}pyridin-3-yl)methanol] the figure was at most 1000 nM.
With `Cl.Cl.Cl.Cl.Cl.Cl.N.N.N.N.N.N.N.N.N.N.N.N.N.N.[O-2].[O-2].[Ru+3].[Ru+3].[Ru+4]` [ruthenium red], the Ki at VR was at least 140 µM.
Consider `FC(F)(F)c1cccnc1N1CCN(c2cc(N3CCCCC3)nc(N3CCOCC3)n2)CC1` [4-(4-piperidin-1-yl-6-{4-[3-(trifluoromethyl)pyridin-2-yl]piperazin-1-yl}pyrimidin-2-yl)morpholine], for which the IC50 at human capsaicin receptor [1] was at most 1000 nM.
`Fc1ccc2c(c1)CCN2c1cc(N2CCN(c3ncccc3C(F)(F)F)CC2)nc(N2CCOCC2)n1` [5-fluoro-1-(2-morpholin-4-yl-6-{4-[3-(trifluoromethyl)pyridin-2-yl]piperazin-1-yl}pyrimidin-4-yl)indoline]: the half-maximal inhibitory concentration (IC50) at human capsaicin receptor [1] was at most 1000 nM.
`Cc1cc(C(N)=O)cnc1N1CCN(c2cc(N3CCCCC3)nc(N3CCCC3C)n2)[C@H](C)C1` (stereo partly shown) [5-methyl-6-{3-methyl-4-[2-(2-methylpyrrolidin-1-yl)-6-piperidin-1-ylpyrimidin-4-yl]piperazin-1-yl}nicotinamide]: the IC50 on human capsaicin receptor [1] is at most 1000 nM.
